According to patent US12091426B2, “Bifunctional degraders of hematopoietic progenitor kinase and therapeutic uses thereof” (Nurix Therapeutics, Inc., priority 2021, dated 2024):

Target: T1, HPK1 (Homo sapiens, UniProt Q92918)
T1 construct: A HiBiT tag was introduced by CRISPR on the N terminus of HPK1 in Jurkat cells; host or cells: Jurkat cells (ATCC TIB-152), monoclonal line with CRISPR knock-in of HiBiT at the endogenous HPK1 locus
Test: HPK1 Cellular HiBit Degradation Assay
Assay type: cell-based
Conditions: HiBiT HPK1 Jurkat cells, 24 hrs; for DC50: concentration at which 50% of HPK1 was remaining, read-out: DC50 Category; for Dmax: Jurkat, maximum degradation vs DMSO vehicle control, read-out: Dmax Category
Method: HPK1 Cellular HiBit Degradation Assay
A HiBiT tag was introduced by CRISPR on the N terminus of HPK1 in Jurkat cells (ATCC® TIB-152) to allow quantitation of HPK1 protein levels in a monoclonal human cell line. Cells were plated at 1×10^6 cells/mL, 30 uL/well (3×10^4 cells/well) in complete RPMI 1640 (10% heat inactivated FBS, 1% L-glutamine) in 384-well assay plates (Corning, cat. no. 3570). HPK1 chimeric targeting molecules (CTMs) were added in an 11 point dilution series (11-point, 3.16-fold) with a final assay concentration range of 10 uM to 0.1 nM. The parental Jurkat cell line, with no HiBiT insertion, was included in the assay as a background control. Cell treated with a DMSO vehicle control was used to determine the maximum signal defining 100% HPK1 in the cell. Cells were incubated for 24 hrs at 37° C./5% CO2. Following incubation, 30 uL of complete Nano-Glo HiBiT Lytic Detection Reagent (Promega cat. no. N3040) was added. Cells were incubated for 10 min at room temperature and luminescence was read on an EnVision plate reader (Perkin Elmer, 0.1 sec per well). Viability was assessed in the same plate using Cell Titer Fluor (Promega) and read on an EnVision plate reader to ensure results were not the effect of cytotoxicity. Percent HPK1 remaining per sample was calculated as follows:
[formula] % HPK1 remaining values were plotted as a function of compound concentration and curves were fit using the Prism (GraphPad) equation “log(inhibitor) vs response−Variable slope (four parameters)”. Dmax values were calculated by identifying the lowest % remaining and subtracting from 100. DC50 values were determined by extrapolating from the curve the concentration at which 50% of HPK1 was remaining based on the DMSO control.
HiBiT HPK1 Jurkat cell lines were used to evaluate the total protein levels of HPK1 in a robust human cellular high throughput format. The level of HPK1 remaining following treatment with HPK1 CTMs is reported as Dmax (maximum degradation) achieved at 24 hours when compared to vehicle treated controls. […] These decreases were not a result of cytotoxicity measured by a viability assessment.

T1 sequence (Q92918 whole entry): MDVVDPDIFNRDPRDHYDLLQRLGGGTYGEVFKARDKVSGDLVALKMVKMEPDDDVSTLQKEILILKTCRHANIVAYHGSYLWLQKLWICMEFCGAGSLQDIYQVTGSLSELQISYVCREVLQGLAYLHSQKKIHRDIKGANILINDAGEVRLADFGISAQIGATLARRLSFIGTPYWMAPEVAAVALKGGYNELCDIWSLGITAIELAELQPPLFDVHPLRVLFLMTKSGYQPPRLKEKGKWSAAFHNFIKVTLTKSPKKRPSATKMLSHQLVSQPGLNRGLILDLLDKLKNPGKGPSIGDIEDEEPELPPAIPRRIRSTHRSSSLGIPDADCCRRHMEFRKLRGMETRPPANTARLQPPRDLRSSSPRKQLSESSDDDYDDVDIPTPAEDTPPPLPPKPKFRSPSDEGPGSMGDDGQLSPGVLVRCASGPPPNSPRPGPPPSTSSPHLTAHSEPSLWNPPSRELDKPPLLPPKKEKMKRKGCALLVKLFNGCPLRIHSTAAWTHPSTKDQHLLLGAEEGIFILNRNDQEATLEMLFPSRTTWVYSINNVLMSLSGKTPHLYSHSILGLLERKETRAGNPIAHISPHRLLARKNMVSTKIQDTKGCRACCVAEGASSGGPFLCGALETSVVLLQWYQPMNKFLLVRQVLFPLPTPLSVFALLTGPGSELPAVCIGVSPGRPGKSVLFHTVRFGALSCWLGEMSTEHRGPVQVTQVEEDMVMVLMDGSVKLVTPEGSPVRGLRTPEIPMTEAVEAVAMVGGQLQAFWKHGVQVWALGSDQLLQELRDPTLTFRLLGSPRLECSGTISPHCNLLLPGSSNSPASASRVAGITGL

Row | Compound | DC50 [nM] | Dmax [%]
1 | CC(C)n1cnc2cc(-c3ccc4c(c3)N([C@H]3C[C@@H](N5CCCCC5)C3)C(=O)C43CCN(C(=O)C4CCN(C(=O)C5CCN(c6ccc7c(c6)C(=O)N(C6CCC(=O)NC6=O)C7=O)CC5)CC4)CC3)nc(NC3CC3)c21 (mixture of isomers) [Example 86, 5-{4-[4-({6-[4-(cyclopropylamino)-3-(propan-2-yl)-3H-imidazo[4,5-c]pyridin-6-yl]-2-oxo-1-[(1S,3S)-3-(piperidin-1-yl)cyclobutyl]-1,2-dihydrospiro[indole-3,4′-piperidin]-1′-yl}carbonyl)piperidine-1-carbonyl]piperidin-1-yl}-2-[(3RS)-2,6-dioxopiperidin-3-yl]-2,3-dihydro-1H-isoindole-1,3-dione] | 100 to 500 | 70 to 85
2 | CC(C)n1cnc2cc(-c3ccc4c(c3)N([C@H]3C[C@@H](N5CCCCC5)C3)C(=O)C43CCN(C(=O)C4(C)CCN(C(=O)C5CCN(c6ccc(C7CCC(=O)NC7=O)cc6)CC5)CC4)CC3)nc(NC3CCOCC3)c21 (mixture of isomers) [Example 196, (3RS)-3-[4-(4-{4-methyl-4-[(6-{4-[(oxan-4-yl)amino]-3-(propan-2-yl)-3H-imidazo[4,5-c]pyridin-6-yl}-2-oxo-1-[(1S,3S)-3-(piperidin-1-yl)cyclobutyl]-1,2-dihydrospiro[indole-3,4′-piperidin]-1′-yl)carbonyl]piperidine-1-carbonyl}piperidin-1-yl)phenyl]piperidine-2,6-dione] | < 100 | 70 to 85
3 | CC(C)n1cnc2cc(-c3ccc4c(c3)N([C@H]3C[C@@H](N5CCCCC5)C3)C(=O)C43CCN(C(=O)C(C)(C)N4CCN(C(=O)C5CCN(c6ccc(C7CCC(=O)NC7=O)cn6)CC5)CC4)CC3)nc(NC3CC3)c21 (mixture of isomers) [Example 188, (3RS)-3-(6-{4-[4-(1-{6-[4-(cyclopropylamino)-3-isopropylimidazo[4,5-c]pyridin-6-yl]-2-oxo-1-[(1S,3S)-3-(piperidin-1-yl)cyclobutyl]spiro[indole-3,4′-piperidin]-1′-yl}-2-methyl-1-oxopropan-2-yl)piperazine-1-carbonyl]piperidin-1-yl}pyridin-3-yl)piperidine-2,6-dione] | < 100 | 70 to 85
4 | CC(C)n1cnc2cc(-c3ccc4c(c3)N([C@H]3C[C@@H](N5CCCCC5)C3)C(=O)C43CCN(C(=O)C4(C)CCN(C(=O)[C@H]5CC[C@H](Oc6ccc(C7CCC(=O)NC7=O)cc6)CC5)CC4)CC3)nc(NC3CC3)c21 (mixture of isomers) [Example 101, (3RS)-3-(4-{[(1R,4R)-4-[4-({6-[4-(cyclopropylamino)-3-(propan-2-yl)-3H-imidazo[4,5-c]pyridin-6-yl]-2-oxo-1-[(1S,3S)-3-(piperidin-1-yl)cyclobutyl]-1,2-dihydrospiro[indole-3,4′-piperidin]-1′-yl}carbonyl)-4-methylpiperidine-1-carbonyl]cyclohexyl]oxy}phenyl)piperidine-2,6-dione] | < 100 | 70 to 85
5 | CC(C)n1cnc2cc(-c3ccc4c(c3)N([C@H]3C[C@@H](N5CCCCC5)C3)C(=O)C43CCN(C(=O)C4CCN(C(=O)C5CCN(c6ccc(C7CCC(=O)NC7=O)cn6)CC5)CC4(F)F)CC3)nc(NC3CC3)c21 (mixture of isomers) [Example 273, (3RS)-3-(6-{4-[4-({6-[4-(cyclopropylamino)-3-(propan-2-yl)-3H-imidazo[4,5-c]pyridin-6-yl]-2-oxo-1-[(1S,3S)-3-(piperidin-1-yl)cyclobutyl]-1,2-dihydrospiro[indole-3,4′-piperidin]-1′-yl}carbonyl)-3,3-Difluoropiperidine-1-carbonyl]piperidin-1-yl}pyridin-3-yl)piperidine-2,6-dione] | < 100 | 70 to 85
6 | CC(C)n1cnc2cc(-c3ccc4c(c3)N([C@H]3C[C@@H](N5CCCCC5)C3)C(=O)C43CCN(C(=O)C4(C)CCN(C(=O)CC5CCN(c6ccc(C7CCC(=O)NC7=O)cn6)CC5)CC4)CC3)nc(NC3CC3)c21 (mixture of isomers) [Example 221, (3RS)-3-[6-(4-{2-[4-({6-[4-(cyclopropylamino)-3-(propan-2-yl)-3H-imidazo[4,5-c]pyridin-6-yl]-2-oxo-1-[(1S,3S)-3-(piperidin-1-yl)cyclobutyl]-1,2-dihydrospiro[indole-3,4′-piperidin]-1′-yl}carbonyl)-4-methylpiperidin-1-yl]-2-oxoethyl}piperidin-1-yl)pyridin-3-yl]piperidine-2,6-dione] | < 100 | 70 to 85
7 | CC(C)n1cnc2cc(-c3ccc4c(c3)N([C@H]3C[C@@H](N5CCCCC5)C3)C(=O)C43CCN(C(=O)C4(C)CCN(C(=O)C5CCN(c6ccc(C7CCC(=O)NC7=O)nc6)CC5)CC4)CC3)nc(Nc3ccccc3F)c21 (mixture of isomers) [Example 119, (3RS)-3-[5-(4-{4-[(6-{4-[(2-fluorophenyl)amino]-3-(propan-2-yl)-3H-imidazo[4,5-c]pyridin-6-yl}-2-oxo-1-[(1S,3S)-3-(piperidin-1-yl)cyclobutyl]-1,2-dihydrospiro[indole-3,4′-piperidin]-1′-yl)carbonyl]-4-methylpiperidine-1-carbonyl}piperidin-1-yl)pyridin-2-yl]piperidine-2,6-dione] | < 100 | 70 to 85
8 | CC(C)n1cnc2cc(-c3ccc4c(c3)N([C@H]3C[C@@H](N5CCCCC5)C3)C(=O)C43CCN(C(=O)C[C@H]4CCCN(C(=O)C5CCN(c6ccc(C7CCC(=O)NC7=O)cn6)CC5)C4)CC3)nc(NC3CC3)c21 (mixture of isomers) [Example 296, (3RS)-3-(6-{4-[(3R)-3-(2-{6-[4-(cyclopropylamino)-3-(propan-2-yl)-3H-imidazo[4,5-c]pyridin-6-yl]-2-oxo-1-[(1S,3S)-3-(piperidin-1-yl)cyclobutyl]-1,2-dihydrospiro[indole-3,4′-piperidin]-1′-yl}-2-oxoethyl)piperidine-1-carbonyl]piperidin-1-yl}pyridin-3-yl)piperidine-2,6-dione] | 100 to 500 | 70 to 85
9 | CC(C)n1cnc2cc(-c3ccc4c(c3)N([C@H]3C[C@@H](N5CCCCC5)C3)C(=O)C43CCN(C(=O)C4CCN(C(=O)C5CCN(c6ccc(C7CCC(=O)NC7=O)nn6)CC5)CC4)CC3)nc(NC3CC3)c21 (mixture of isomers) [Example 236, (3RS)-3-(6-{4-[4-({6-[4-(cyclopropylamino)-3-(propan-2-yl)-3H-imidazo[4,5-c]pyridin-6-yl]-2-oxo-1-[(1S,3S)-3-(piperidin-1-yl)cyclobutyl]-1,2-dihydrospiro[indole-3,4′-piperidin]-1′-yl}carbonyl)piperidine-1-carbonyl]piperidin-1-yl}pyridazin-3-yl)piperidine-2,6-dione] | < 100 | 70 to 85
10 | CC(C)n1cnc2cc(-c3ccc4c(c3)N([C@H]3C[C@@H](N5CCCCC5)C3)C(=O)C43CCN(C(=O)C4CCN(C(=O)C5CCN(c6ncc(C7CCC(=O)NC7=O)cn6)CC5)CC4)CC3)nc(Nc3ccccc3F)c21 (stereo partly drawn) [Example 90, 3-(2-(4-(4-(6-(4-((2-fluorophenyl)amino)-3-isopropyl-3H-imidazo[4,5-c]pyridin-6-yl)-2-oxo-1-((1S,3S)-3-(piperidin-1-yl)cyclobutyl)spiro[indoline-3,4′-piperidine]-1′-carbonyl)piperidine-1-carbonyl)piperidin-1-yl)pyrimidin-5-yl)piperidine-2,6-dione] | < 100 | 70 to 85
11 | CC(C)n1cnc2cc(-c3ccc4c(c3)N([C@H]3C[C@@H](N5CCCCC5)C3)C(=O)C43CCN(C(=O)[C@H]4CC[C@H](C(=O)N5CCC(N(C)c6ccc(C7CCC(=O)NC7=O)cc6)CC5)CC4)CC3)nc(Nc3ccccc3F)c21 (mixture of isomers) [Example 135, (3RS)-3-{4-[methyl({1-[(1R,4R)-4-[(6-{4-[(2-fluorophenyl)amino]-3-(propan-2-yl)-3H-imidazo[4,5-c]pyridin-6-yl}-2-oxo-1-[(1S,3S)-3-(piperidin-1-yl)cyclobutyl]-1,2-dihydrospiro[indole-3,4′-piperidin]-1′-yl)carbonyl]cyclohexanecarbonyl]piperidin-4-yl})amino]phenyl}piperidine-2,6-dione] | < 100 | 70 to 85
